Data from patent US20110294992A1, “METAL RESPONSIVE MRI-AGENTS” (The Regents of the University of California, priority 2010, published 2011).
Values joined by “and” are separate entries in the source; they are usually repeats but may differ in a detail not shown here. Identical values can stand only once. Marks after values point to notes of the source that are not given here.

Columns and labels:
[1] = Kinetic stability to metal ion exchange monitored by LC/MS; type: physicochemical; conditions: 1 equiv of Cu^2+
[2] = T1-weighted phantom magnetic resonance imaging at 1.5 T; conditions: 100 μM sensor with Cu^+ at 0, 10, 25, 50, 75, and 100 μM
Procedure: FIG. 10. A) T1-weighted phantom images of 100 μM CG2-6 in 20 mM HEPES pH 7 with and without 1 equiv Cu^n+. B) Phantom images of 100 μM CG2-6 with 0, 10, 25, 50, 75, and 100 μM [Cu(NCCH3)4]PF6. Images were acquired at 25° C. at 1.5 T (˜64 MHz proton Larmor frequency).
With spectroscopic data showing the turn-on relaxivity responses, binding properties, metal ion selectivities, and copper-induced changes in q values for this new series of CG contrast agents in hand, we next sought to test the ability of these sensors to detect changes in aqueous Cu^+ and/or Cu^2+ levels using MRI. […] In this context, chelatable copper pools have been identified in the mitochondrial matrix^22 and in the Golgi apparatus.^23 Moreover, the cerebrospinal fluid (CSF) contains micromolar levels of copper ions, most of which is not bound to ceruloplasmin due to the low concentrations of this protein in the CSF,^24,25 which may result in facile exchange between different copper binding ligands.^26

[3] = Longitudinal relaxivity (r1) turn-on response to Cu+ from T1 measurements at 60 MHz; type: physicochemical; conditions: 1 equiv Cu^+, 20 mM HEPES buffer, pH 7, 37° C.
Procedure: The longitudinal relaxivity values for the CG contrast agents in the absence or presence of copper ions were determined using T1 measurements at 60 MHz. Studies were performed at 37° C. in 20 mM HEPES buffered to pH 7, and solutions of the purified CG sensors for relaxivity experiments contained 0.2 mM Gd^3+ as determined by ICP-OES. Spectroscopic data are collected in Table 1.
Upon addition of up to 1 equiv of copper ions, the relaxivity values of the CG contrast agents increase, establishing the ability of these probes to sense copper using the MR modality (Table 1, FIG. 3). CG2, CG3, CG4, and CG5 respond to Cu^+ with relaxivity increases ranging from 92% to 360%. […] These values represent the largest relaxivity enhancements observed to date for metal-activated MR contrast agents and a ca. 9-fold improvement in copper ion response compared to CG1 (41% increase). The observed differences in turn-on Cu^+ responses for benzyl-substituted CG4 (290% increase) versus methyl-substituted CG5 (92% increase) with the same pyridyl-thioether receptor show the marked effects that small peripheral substitutions can have on relaxivity properties.

[4] = Electrochemical Cu2+/Cu+ reduction potentials of copper-bound CG complexes; type: physicochemical; conditions: PBS buffer, pH 7.4
Procedure: CG6 is a unique member of the CG family that is equally responsive to both Cu^+ and Cu^2+. Addition of either Cu^+ or Cu^2+ to CG6 triggers a maximum 73% relaxivity turn-on from r1=2.2 mM^−1s^−1 to r1=3.8 mM^−1s^−1. […] On the other hand, copper-bound CG6, which responds to both Cu^+ and Cu^2+, has the least positive Cu^2+/Cu^+ reduction potential at +0.13 V.

[5] = Metal ion selectivity of relaxivity response (competing metal ions alone or with added copper); type: physicochemical; conditions: relaxivity at 60 MHz, 20 mM HEPES, pH 7, 37° C.
Procedure: FIG. 6. Relaxivity responses of CG2 to various metal ions. White bars represent the addition of an excess of the appropriate metal ion (10 mM for Na^+, 2 mM for K^+, Mg^2+, and Ca^2+, and 0.2 mM for Fe^2+, Fe^3+, Cu^2+) to a 0.2 mM solution of CG2. Response to Zn^2+ was measured both at 0.2 mM Zn^2+ (Zn^2+1×) and 2 mM Zn^2+ (Zn^2+10×). Black bars represent the subsequent addition of 0.2 mM Cu^+ to the CG2 solution. Relaxivity measurements were acquired at 37° C. in 20 mM HEPES buffer, pH 7, at a proton Larmor frequency of 60 MHz.
The potential ability of this new family of CG sensors to sense bioavailable copper pools in either or both its predominant oxidation states represents a significant advance over the initial CG1 compound.

[6] = Nuclear magnetic relaxation dispersion (NMRD) profiles, Solomon-Bloembergen-Morgan fit; type: physicochemical; conditions: copper free
Procedure: FIG. 9. ^1H Nuclear magnetic relaxation dispersion profiles of CG3 and CG3+Cu^+ acquired at 25° C. The solid lines represent the best fit profiles.
As a secondary, independent set of experiments to further probe the mechanisms of copper ion sensing by the CG contrast agents, we also performed nuclear magnetic relaxation dispersion (NMRD) measurements of these sensors in the absence and in the presence of copper ions using a field cycling relaxometer (FIG. 9). The profiles obtained were analyzed following Solomon-Bloembergen-Morgan theory^36-38 for the inner-sphere relaxivity and the Freed model^115 for the outer-sphere relaxivity, fixing the diffusion coefficient (D) at […], the distance between Gd^3+ and the inner sphere water protons (r) at 3.1 Å, and the inner sphere exchange lifetime (τM) at 160 ns, the reported value for the parent complex Gd^3+-DO3A. Profiles were obtained for all compounds in the copper-free state. Profiles in the presence of Cu^n+ were obtained for CG2-4 (Cu^+) and CG6 (Cu^2+).
In fact, the measured outer-sphere relaxivities were so low that, in order to obtain a reasonable fit, the distance of closest approach of outer-sphere water protons (a) was allowed to vary. The distances obtained for the CG complexes (4.2-4.8 Å) were markedly longer than what is observed for typical Gd^3+ contrast agents with greater water access (3.8-4 Å). These values correlate with the copper-free relaxivities of CG2-6; longer a values give lower relaxivities and shorter a values give higher relaxivities. For Cu^+-sensing agents CG2-4, the estimated change in q of 2 as determined by DIS measurements was also observed in the fitted NMRD data. In fact, any attempt to fit the observed NMRD profiles with q=1 led to very poor agreement between experimental and calculated values. The change in q of 1 for CG6 upon addition of Cu^2+ as determined by NMRD is consistent with the lower turn-on response observed with this complex compared to CG2-4. The reduced q modulation for CG6 relative to CG2-4 could indicate that the carboxylic acid moiety used for Cu^2+ binding also interacts with the Gd^3+ center in the Cu^2+-bound state. The fitted rotational correlation times (τR) for copper-bound CG complexes all fall within the range expected for Gd^3+ complexes with molecular weights of 700-800 D. τR values for copper-free CG2-6 were fixed to values close to their copper-bound analogues as fits of NMRD data for q=0 complexes are not sensitive to small changes in τR. The values of Δ^2 (average quadratic transient zero field splitting), τv (electronic correlation time), and τs0 (electronic relaxation time at zero field), which govern the electronic relaxation time, are relatively similar to each other. These NMRD values are closer to those of Gd^3+-DTPA than Gd^3+-DOTA, reflecting the asymmetry of CG2-6.^64

CCSCCN(CCSCC)Cc1cccc(CN2CCN(CC(=O)[O-])CCN(CC(=O)[O-])CCN(CC(=O)[O-])CC2)n1.[Gd+3] [CG2]
metal ion exchange (kinetic stability) ([1]; 37° C., after 4 hours): No metal ion exchange was observed
metal ion exchange (kinetic stability) ([1]; room temperature, after 7 days): No metal ion exchange was observed
visualization of copper level differences in phantom images [2]: can readily visualize differences in copper levels in a biologically relevant μM range
r1 (1 equiv Cu) [3]: 6.9 mM^−1s^−1 and 6.9^b mM^−1s^−1
Cu^2+/+ E1/2 [4]: 0.46 V vs. SHE
redox specificity of relaxivity response (Cu^+ vs Cu^2+) [5]: give turn-on relaxivity increases with Cu^+ but do not respond to Cu^2+
τs0 (electronic relaxation time at zero field) [6]: 75.6 ps
r1p 20 MHz 25° C. ([6]; 0.5 mM, 20 mM HEPES pH 7): 1.6 mM⁻¹ s⁻¹
a (distance of closest approach of outer-sphere water protons) ([6]; best-fit value): 4.7 ± 0.11 Å
Δ^2 (average quadratic transient zero field splitting) ([6]; best-fit value): 5.8 ± 1.1 10^19 s^−2
τv (electronic correlation time) ([6]; best-fit value): 19 ± 2.4 ps
q ([6]; fixed in the fitting procedure): 0^c
τR (rotational correlation time) ([6]; not experimentally determined, assumed equal to corresponding q ≠ 0 complex (CG5: average of the other complexes)): 110^d ps
